Drawing on patent publication US9249139B2, “Indolizinone based derivatives as potential phosphodiesterase 3 (PDE3) inhibitors and a process for the preparation thereof” (COUNCIL OF SCIENTIFIC & INDUSTRIAL RESEARCH, priority 2013, dated 2016), this text covers IC50 for 8 compounds.

The assay has as its target PDE3 enzyme (Homo sapiens (Human), UniProt Q14432). As to the kind of experiment: PDE3 inhibition assay, BIOMOL GREEN Quantizyme Assay System. The class given is biochemical. The following applies: PDE3 enzyme from platelets isolated from human blood; cAMP substrate; 1 hour at 37° C.; read at 620 nm. As to the method: PDE3 inhibition assay was performed a BIOMOL GREEN™ Quantizyme Assay System (catalogue No. BML-AK800-0001). The Platelets isolated from human blood were used as a source of PDE3 enzyme. 10 mL blood collected in a vacutainer tube (containing K3 EDTA) and centrifuged at 190×g for 15 min at room temperature. Top layer (platelet rich plasma) collected, centrifuged at 2500g for 5 min at 22° C. (Room temp.) The pellet was washed with 2 ml of 50 mM tris buffer (pH-7.4) containing 1 mM MgCl2 and centrifuged at 2500 g for 5 min. Then 200 μl of assay buffer (from PDE kit, Enzo Life Sciences) was added to the pellet and sonicated at 30 s per ml. Pellet was freeze thawed for three times (−80° C.) in order to rupture the platelet membrane and release the PDE enzyme. Then the cell homogenate was centrifuged at 2500 rpm for 5 min. Supernatant was collected and used as source for PDE3 enzyme. In 96 well plate (Prod. No. BML-KI101), we added supernatant having PDE3 enzyme, PDE3 assay buffer, cAMP substrate, 5′nucleotidase and test or standard compound and incubated for 1 hour at 37° C. The reaction was arrested by the addition 100 μl BIOMOL GREEN reagent incubated in room temp for 20 min. The green color developed was measured at 620 nm
The in vitro Phosphodiestarase (PDE3) inhibitory activity of compounds 1a-p were measured using a BIOMOL GREEN™ Quantizyme Assay System (catalogue No. BML-AK800-0001). The basic principle for this assay is the cleavage of c-AMP or c-GMP into their respective nucleotide by a cyclic nucleotide phosphodiesterase. The nucleotide (AMP or GMP) released is further cleaved into the nucleoside and phosphate by the enzyme 5′-nucleotidase. The extent of phosphate released is directly proportional to the PDE activity. In this screening method, the released phosphate by the enzymatic cleavage is quantified using BIOMOL GREEN reagent in a modified malachite green assay. The resulting green colour with λmax at 620 nm is directly proportional to the released phosphate and then PDE activity.

PDE3 enzyme, sequence (Q14432 whole entry): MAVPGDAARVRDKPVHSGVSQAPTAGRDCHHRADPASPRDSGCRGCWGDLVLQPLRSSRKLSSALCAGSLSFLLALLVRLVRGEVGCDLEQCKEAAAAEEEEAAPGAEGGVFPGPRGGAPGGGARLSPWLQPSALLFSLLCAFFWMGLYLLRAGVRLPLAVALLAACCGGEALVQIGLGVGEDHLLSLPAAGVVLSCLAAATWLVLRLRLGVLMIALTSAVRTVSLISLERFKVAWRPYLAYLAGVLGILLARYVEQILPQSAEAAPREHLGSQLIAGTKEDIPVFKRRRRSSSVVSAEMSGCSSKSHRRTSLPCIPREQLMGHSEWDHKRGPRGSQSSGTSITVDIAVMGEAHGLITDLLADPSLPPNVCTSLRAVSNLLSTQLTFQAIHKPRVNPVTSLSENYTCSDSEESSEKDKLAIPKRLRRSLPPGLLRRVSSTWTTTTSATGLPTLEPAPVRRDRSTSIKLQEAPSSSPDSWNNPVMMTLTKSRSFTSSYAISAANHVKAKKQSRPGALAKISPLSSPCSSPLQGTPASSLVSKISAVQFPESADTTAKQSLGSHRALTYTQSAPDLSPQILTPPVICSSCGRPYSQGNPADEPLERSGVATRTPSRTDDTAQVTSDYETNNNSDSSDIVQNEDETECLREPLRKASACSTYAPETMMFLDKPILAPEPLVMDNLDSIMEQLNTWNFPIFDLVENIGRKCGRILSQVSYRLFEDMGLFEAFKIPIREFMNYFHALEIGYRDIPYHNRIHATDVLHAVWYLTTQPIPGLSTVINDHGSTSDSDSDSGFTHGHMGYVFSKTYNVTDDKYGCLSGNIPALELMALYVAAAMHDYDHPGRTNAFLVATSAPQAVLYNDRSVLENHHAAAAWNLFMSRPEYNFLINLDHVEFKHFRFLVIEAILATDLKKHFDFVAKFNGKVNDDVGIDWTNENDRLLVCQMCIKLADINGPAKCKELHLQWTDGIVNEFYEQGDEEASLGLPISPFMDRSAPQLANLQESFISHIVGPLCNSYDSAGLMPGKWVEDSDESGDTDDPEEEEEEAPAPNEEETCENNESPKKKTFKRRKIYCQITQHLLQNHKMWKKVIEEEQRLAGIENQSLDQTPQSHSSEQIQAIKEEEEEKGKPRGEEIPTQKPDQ

For `CCOC(=O)c1cc(Cc2ccccc2Cl)c(=O)n2c1CCC2` [Compound 1e, Ethyl 6-(2-chlorobenzyl)-5-oxo-1,2,3,5-tetrahydro-8-indolizinonecarboxylate], the IC50 (commonly the point on the concentration scale where inhibition reaches its midpoint) turned out to be 0.129 µM.

In turn, `CCOC(=O)c1cc(Cc2ccccc2)c(=O)n2c1CCC2` [Compound 1a, Ethyl 6-benzyl-5-oxo-1,2,3,5-tetrahydro-8-indolizinonecarboxylate] had an IC50 of 0.435 µM.

On to `CCOC(=O)c1cc(Cc2cccc(Br)c2)c(=O)n2c1CCC2` [Compound 1j, Ethyl 6-(3-bromobenzyl)-5-oxo-1,2,3,5-tetrahydro-8-indolizinonecarboxylate], for which the midpoint of inhibition, the IC50, lay at 0.0113 µM.

`CCOC(=O)c1cc(Cc2cccc(F)c2)c(=O)n2c1CCC2` [Compound 1c, Ethyl 6-(3-fluorobenzyl)-5-oxo-1,2,3,5-tetrahydro-8-indolizinonecarboxylate]: the IC50 was found to be 0.0135 µM.

As to `CCOC(=O)c1cc(Cc2ccc(Cl)cc2Cl)c(=O)n2c1CCC2` [Compound 1h, Ethyl 6-(2,4-dichlorobenzyl)-5-oxo-1,2,3,5-tetrahydro-8-indolizinonecarboxylate], it took 0.577 µM to reach half-maximal inhibition (IC50).

`CCOC(=O)c1cc(Cc2ccc(Br)cc2)c(=O)n2c1CCC2` [Compound 1k, Ethyl 6-(4-bromobenzyl)-5-oxo-1,2,3,5-tetrahydro-8-indolizinonecarboxylate] displayed an IC50 of 0.0673 µM.

In turn, `CCOC(=O)c1cc(Cc2ccc(Cl)cc2)c(=O)n2c1CCC2` [Compound 1g, Ethyl 6-(4-chlorobenzyl)-5-oxo-1,2,3,5-tetrahydro-8-indolizinonecarboxylate] yielded an IC50 of 0.108 µM.

As for `CCOC(=O)c1cc(Cc2ccc(F)cc2)c(=O)n2c1CCC2` [Compound 1d, Ethyl 6-(4-fluorobenzyl)-5-oxo-1,2,3,5-tetrahydro-8-indolizinonecarboxylate], 1.6 µM corresponded to half-maximal inhibition (IC50).
